Molecules are shown by their SMILES.

The record followed here is patent publication US20230346797A1, “INHIBITORS OF THE PLASMODIAL SURFACE ANION CHANNEL AS ANTIMALARIALS” (The United States of America,as represented by the …, priority 2008, published 2023).

The test system of experiment [1] is P. falciparum. Description: In vitro parasite growth inhibition, SYBR Green I-based fluorescence assay for parasite nucleic acid. The class given is cell-based. As to conditions: Plasmodium falciparum, 72 h; 3 days culture; read-out: In vitro growth inhibitory IC50.
Experiment [2] has as its system P. falciparum. The experiment can be described thus: In vitro parasite growth inhibition by combinations of two PSAC antagonists (isobologram).
Description: Parasite killing by identified PSAC antagonists was evaluated using a SYBR Green I-based fluorescence assay for parasite nucleic acid in 96-well format. […] Cultures were maintained for 3 days at 37° C. in 5% 02, 5% CO2. […] For each antagonist concentration, the mean of triplicate measurements was calculated after subtraction of background fluorescence from cultures killed by 20 μM chloroquine, a known antimalarial agent.
The solid line represents the line of additive killing.
Where [3] appears, read: in combination with compound 11 (Comp. A).
[4] abbreviates: in combination with compound 24 (Comp. A).
[5] abbreviates: in combination with compound 26 (Comp. A).
[6] abbreviates: in combination with compound 31 (Comp. A).

On to `Cc1cccc(N2CCN(C(=O)c3ccc4c(c3)NC(=O)c3ccccc3S4)CC2)c1C` [Compound 2], for which the IC50 with P. falciparum [1] came to 1 µM.

Turning to `O=C1Nc2cc(C(=O)N3CCN(c4ccccc4)CC3)ccc2Sc2ccccc21` [Compound 3], in the experiment on P. falciparum [1], the half-maximal inhibitory concentration (IC50) came to 0.67 µM.

Consider `Cc1ccc(C)c(N2CCN(C(=O)c3ccc4c(c3)NC(=O)c3ccccc3S4)CC2)c1` [Compound 5], for which, in the experiment with P. falciparum [1], the IC50 was 1.33 µM.

As for `O=C1Nc2cc(C(=O)N3CCC(N4CCCCC4)CC3)ccc2Sc2ccccc21` [Compound 9], the IC50 with P. falciparum [1] stood at 6.9 µM.

With `O=C1Nc2cc(C(=O)N3CCC(Cc4ccccc4)CC3)ccc2Sc2ccccc21` [Compound 10], the IC50 in the experiment on P. falciparum [1] amounted to 3.01 µM.

Take `CCC(Cc1ccccc1)NC(=O)c1ccc2c(c1)NC(=O)c1ccccc1S2` (stereo not shown) [Compound 11]: the IC50 with P. falciparum [1] amounted to 3 µM.

For `CCOc1ccc(C(=O)Nc2ccc(-c3nn4c(C)nnc4s3)cc2)cc1` [Compound 13], the concentration for half-maximal inhibition (IC50) in the experiment with P. falciparum [1] was determined as 3.85 µM. In addition, the “parasite killing by combination” value in the experiment with P. falciparum [2] (setting [3]), with P. falciparum [2] (setting [4]), in the experiment with P. falciparum [2] (setting [5]), in the experiment with P. falciparum [2] (setting [6]), with P. falciparum [2] (in combination with compound 32 (Comp. A)) and in the experiment on P. falciparum [2] (in combination with compound 33 (Comp. A)) was “S” each time. In addition, the “parasite killing by combination” value in the experiment with P. falciparum [2] (in combination with compound 34 (Comp. A)) is “S”.

Consider `O=C(COc1ccc2ccccc2c1)Nc1cccc(-c2nc3ncccc3o2)c1` [Compound 15], for which the half-inhibitory concentration (IC50) in the experiment on P. falciparum [1] was 6 µM.

Take `COc1ccc(OCC(=O)Nc2ccc(-c3nn4c(C)nnc4s3)cc2)cc1` [Compound 16]: in the experiment with P. falciparum [1], the IC50 turned out to be 4.98 µM. For the same compound, the “parasite killing by combination” value in the experiment with P. falciparum [2] (setting [4]) and in the experiment with P. falciparum [2] (in combination with compound 35 (Comp. A)) was “S” throughout.

Take `CCc1nnc2sc(-c3ccc(NC(=O)c4ccc(N5CCCC5)c([N+](=O)[O-])c4)cc3)nn12` [Compound 17]: the IC50 in the experiment with P. falciparum [1] amounted to 39 µM.

For `CCCCOc1ccc(C(=O)Nc2ccc(-c3nn4c(C)nnc4s3)cc2)cc1` [Compound 18], in the experiment with P. falciparum [1], the IC50 turned out to be 2.14 µM. Besides, the “parasite killing by combination, isobologram (FIG. 3C)” value in the experiment with P. falciparum [2] (in combination with compound 24 (component A antagonist), mixtures producing 50% parasite killing) is recorded as “synergistic parasite killing”.

For the compound `Cc1nnc2sc(-c3ccc(NC(=O)c4ccc(Br)o4)cc3)nn12` [Compound 19], in the experiment with P. falciparum [1], the IC50 amounted to 2.74 µM.

For `Cc1cc(-c2nn3c(C)nnc3s2)ccc1NC(=O)c1ccco1` [Compound 20], in the experiment with P. falciparum [1], the IC50 worked out at 21.6 µM.

For `O=C(Nc1ccc(-c2noc(-c3cccs3)n2)cc1)c1cccnc1` [Compound 21], the half-maximal inhibitory concentration (IC50) in the experiment on P. falciparum [1] was found to be 10 µM. The “parasite killing by combination” value with P. falciparum [2] (setting [4]) is reported as “S”.

`CCCCCC(=O)Nc1cc(-c2nn3c(C)nnc3s2)ccc1C` [Compound 22]: in the experiment on P. falciparum [1], the IC50 turned out to be 21.5 µM.

As for `Cc1cc(-c2nn3c(C)nnc3s2)ccc1NC(=O)C(C)C` [Compound 23], in the experiment on P. falciparum [1], the IC50 is 36.7 µM.

For `COc1ccc2cc3cc(C(=O)N(C)C4CCCCC4)oc3nc2c1` [Compound 25], the IC50 in the experiment on P. falciparum [1] was 4 µM. Further, the “parasite killing by combination” value in the experiment with P. falciparum [2] (setting [3]), in the experiment with P. falciparum [2] (setting [4]), with P. falciparum [2] (setting [5]) and in the experiment with P. falciparum [2] (setting [6]) was “S” in each case.

On to `CCCN(C(=O)c1cc2cc3ccc(C)cc3nc2o1)c1cccc(C)c1` [Compound 26], for which, in the experiment on P. falciparum [1], the IC50 came to 6.9 µM.

`COc1ccc(-c2nc3c(=O)[nH]c4ccccc4c3s2)cc1` [Compound 32]: in the experiment with P. falciparum [1], the IC50 amounted to 3 µM.

In the case of `COc1ccc(-c2nc3c(=O)n(C)c4ccccc4c3o2)cc1` [Compound 33], the IC50 with P. falciparum [1] is above 20 µM.

On to `CCCCCn1c(=O)c2nc(-c3ccc(OC)cc3)oc2c2ccccc21` [Compound 34], for which the IC50 with P. falciparum [1] turned out to be 15 µM.

For the compound `COc1cc(OC)nc(Sc2ccc(NC(=O)c3ccc(C(C)(C)C)cc3)cc2)n1` [Compound 36], in the experiment with P. falciparum [2] (setting [4]), the “parasite killing by combination” value was “S”.
